Laboratory results from patent publication US6541503B2, “Substituted oxindole derivatives as protein tyrosine kinase and as protein serine/threonine kinase inhibitors” (SmithKline Beecham Corporation, priority 1997, dated 2003).
Like-named read-outs stand apart in the source and are kept apart here.

Columns and labels:
[1] = system: RKO colon adenocarcinoma cells; experiment: FACS assay (cell death by flow cytometry), RKO; format: cell-based, human; conditions: Homo sapiens, 72 h, read-out: FACS RKO IC50
Method: (§1) These assays allow determination of both cell death and changes in cell cycle profile in cells following treatment of the compound. The assay is performend as follows:
(§2) 1. Cells are incubated in DMEM to which 10% FCS has been added in a humidified incubator at 37° C. and 5% by volume of CO2 in air. The cells are innoculated in 6-well plates at a density of 0.5-5×10^5 cells per well.
(§3) 2. The test compound is added in serial dilutions 24-36 h after plating in 0.5% DMSO. The plates are then incubated a further 72 h in the presence of the compound. During this time, cells in control cultures undergo at least three cell divisions.
(§4) 3. After incubation, the media is collected and cells are harvested by trypsinization. The cells and media are pooled and pelleted by centrifugation.
(§5) 4. The cell pellet is fixed in a final volume of 3 mL of 50% ice cold MeOH and incubated for a minimum of 30 min at −20° C.
(§6) 5. The cells are pelleted by centrifugation and resuspended in 0.5 mL PBS containing 1%FCS, […] Propidium Iodide (PI) and 5 mg/mL RNase A and incubated 30 min at 37° C. in the dark.
(§7) 6. The samples are analysed by flow cytometry using the relative incorporation of PI as a measure of DNA content of each cell. The % Dead cells is recorded as % of events with less than 2N DNA.
(§8) HDF are normal diploid fibroblast cells. RKO are colon adenocarcinoma cells and MES/SA are […].

[2] = system: RKO colon adenocarcinoma cells; experiment: MTT assay, RKO; format: cell-based, human
Method: (§9) Compounds are tested for their ability to inhibit cell proliferation and cell viability. The metabolic conversion of 3-(4,5-dimethylthiazol-2-yl)-2,5-diphenyltetrazolium bromide (MTT, Sigma #M2128) to a reduced form is a commonly used measure of cellular viability. Following is the procedure:
(§10) Cells are maintained in 75 cm^2 tissue culture flasks until ready for use. The cells are grown and plated for the assay in Dulbecco's modified Eagle's media (DMEM) containing 10% fetal bovine serum. For example, the following cell lines can be used: a) human foreskin fibroblasts (HFF); b) HT29 (human colon carcinoma cell line); c)MDA-MB-468 (human breast carcinoma cell line); d) RKO (human colon adenocarcinoma cell line); e) SW620 (human colon carcinoma cell line); f) A549 (human lung carcinoma cell line); and g) MIA PACA (human pancreatic carcinoma cell line). Cells are maintained at 37° C. in 10% CO2, 90% humidified air. Cells are plated in 96-well tissue culture plates at the densities listed below. 100 μL of cell suspension is added to each well of the 96-well plate except the top row of the plate which contains no cells and serves as a reference for the spectrophotometer.
(§11) Cells are incubated overnight in DMEM containing 10% fetal bovine serum at 37° C. in 10% CO2, 90% humidified air prior to dosing. […] Compounds with solubilities of less than 30 μM are dosed at the highest soluble concentration. Stock solutions of compounds are made in 100% dimethyl sulfoxide (DMSO). Stock solutions are diluted in DMEM containing 100 μg/ml gentamicin and 0.3 to 0.6% DMSO at the twice the highest concentration to be placed on the cells. If compounds have been dissolved in DMSO the final concentration of DMSO on the cells is kept below 0.3%. Three-fold serial dilutions are performed on each compound to prepare 10 concentrations of the compound for dosing. 100 μl of diluted compound is added to the 100 μl of media currently on the dish. For each concentration of compound, 2-4 replicate wells are prepared.
(§12) Cells are returned to incubator and allowed to proliferate in the presence of compound for 72 h before addition of MTT. MTT is prepared in phosphate buffered saline (Irvine Scientific #9240) at a concentration of 2 mg/ml. 50 μl per well of MTT solution is added to the 200 μl of media to yield a final concentration of 0.4 mg/ml and plates are returned to the incubator for 4 h. After 4 h incubation the media, compound and MTT mixture is aspirated from the plates and 100 μl of 100% DMSO is added to each well in addition to 25 μl of Sorenson's Buffer (0.1M glycine, 0.1M NaCl, pH 10.5). Quantitation of metabolic reduction of MTT in each plate is performed by reading optical density at 570 nm wavelength on a Molecular Devices UVmax microplate reader. Growth inhibition curves and 50% inhibitory concentrations are determined using Microsoft Excel.
as §8

[3] = system: MES/SA ovarian carcinoma cells; experiment: FACS assay (cell death by flow cytometry), MES/SA; format: cell-based; conditions: Homo sapiens, MES-SA, 72 h, read-out: FACS MES/SA IC50
Method: as §1, §2, §3, §4, §5, §6, §7, §8

MDA MB468 = experiment: MTT assay, MDA MB468; format: cell-based, human
Method: as §9, §10, §11, §12

cSrc = cSrc (Homo sapiens, UniProt P12931); experiment: Src peptide phosphorylation assay (Elisa or isotope based); format: biochemical
Chain of cSrc (P12931 whole entry, species assumed): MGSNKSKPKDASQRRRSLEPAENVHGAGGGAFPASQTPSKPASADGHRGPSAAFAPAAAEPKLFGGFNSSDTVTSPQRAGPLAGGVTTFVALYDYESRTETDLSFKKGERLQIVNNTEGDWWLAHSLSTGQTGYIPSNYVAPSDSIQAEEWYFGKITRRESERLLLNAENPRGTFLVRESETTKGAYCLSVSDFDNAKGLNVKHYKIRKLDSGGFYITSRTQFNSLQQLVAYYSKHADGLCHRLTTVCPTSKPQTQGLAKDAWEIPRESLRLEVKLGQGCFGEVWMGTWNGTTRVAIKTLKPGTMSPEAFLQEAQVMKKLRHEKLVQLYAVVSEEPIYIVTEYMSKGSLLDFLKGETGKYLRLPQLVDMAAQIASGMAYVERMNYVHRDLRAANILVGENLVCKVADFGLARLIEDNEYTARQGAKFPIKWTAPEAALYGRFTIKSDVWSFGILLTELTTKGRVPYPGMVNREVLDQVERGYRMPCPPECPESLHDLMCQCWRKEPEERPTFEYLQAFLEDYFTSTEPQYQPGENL
Method: The peptide substrates used in Src and Lck assays were biotin-aminohexyl-EEIYGEF-NH2 (Src) and biotin-aminohexyl-[…]-NH2 (Lck). The src and Ick proteins were purified to homogeneity from a baculovirus expression system and preactivated before adding to assay mixtures. The maximum activation was achieved by incubating concentrated enzyme (10-30 mM) on ice for 40 min in the presence of 1 mM ATP and 10 mM MgCl2 in 100 mM HEPES, pH 7.5. The activated enzyme was diluted to 2 nM into a 50-mL reaction mixture containing 100 mM HEPES, pH 7.5. 5 mM ATP, 10 mM MgCl2, 2 mM peptide, 0.05 mg/mL BSA, and an inhibitor at varying concentrations and with or without 8 mCi/mL [γ-^33P]ATP dependent upon the method of analysis for the extent of reaction. The controls were reactions in the presence (negative controls) or absence (positive controls) of 50 mM EDTA. Reactions were allowed to proceed for 30 min at room temperature and quenched with addition of EDTA to 50 mM in 220 mL. The extent of reactions was analyzed in one of the two ways: an Elisa-based and a radioactive isotope-based. The quenched samples (200 mL) were transferred to a neutravidin coated plate (Perice) and incubated at room temperature for 40 min to allow biotinylated peptide to bind to neutravidin. The unbound peptide and the rest of the solution was washed away using a plate washer. In the Elisa format, a 200 mL HRP-PY20 anti phosphotyrosine antibody conjugate solution was added. After incubation for about 30 min, the plated was washed to remove unbound antibody-HRP conjugate. An Elisa substrate, K-blue (Neogen), was added and the Elisa reaction quenched with Red-stop (Neogen) after 15 min. The plate was read at A625 in a plate reader. In the isotope-based format, the reactions had been performed in the presence of [γ-^33P]ATP. 200 mL Scintiverce DB was added to each well of the plate with bound biotin-peptide. The plate was sealed and counted in a micro-b-counter (Wallac). IC50 values were obtained by fitting raw data to A625 (cpm)=Vmax*(1−([l]/(IC50+[l])))+b, where b is background.

[4] = Homo sapiens, 72 h, read-out: MTT RKO IC50
[5] = Homo sapiens, 72 h; read-out: MTT RKO IC50
[6] = Homo sapiens, MDA-MB-468, 72 h; read-out: MTT MDA MB468 IC50

Compound | IC50 [1] | IC50 [2, 4] | IC50 ([1]; 50% cell death) | IC50 ([3]; 50% cell death) | IC50 [2, 5] | IC50 (MDA MB468; [6]) | IC50 (cSrc) | IC50 [3] | IC50 (MDA MB468; Homo sapiens, MDA-MB-468, 72 h, read-out: MTT MDA MB468 IC50)
CNS(=O)(=O)Cc1ccc(NN=C2C(=O)Nc3ccc4ncccc4c32)cc1 [Example 68, N-Methyl-C-{4-[N′-(2-oxo-2,3-dihydro-pyrrolo[3,2-f]quinolin-1-ylidene)-hydrazino]-phenyl}-methanesulfonamide] | 1100 to 5000 nM | > 5000 nM |  |  |  |  |  |  | 
CC(C)(CO)CNS(=O)(=O)c1ccc(NC=C2C(=O)Nc3ccc4ncsc4c32)cc1 [Example 77, N-(3-Hydroxy-2,2-dimethyl-propyl)-4-[(7-oxo-6,7-dihydro-1-thia-3,6-diaza-as-indacen-8-ylidenemethyl)-amino]-benzenesulfonamide] |  |  | 1100 to 5000 nM | 600 to 1000 nM | 1100 to 5000 nM | > 5000 nM |  |  | 
CNS(=O)(=O)Cc1ccc(NN=C2C(=O)Nc3cc(C)c(O)c(C)c32)cc1 [Example 99] |  |  | 100 to 500 nM | > 5000 nM | 100 to 500 nM | 100 to 500 nM | > 100 nM |  | 
CS(=O)(=O)Cc1ccc(NC=C2C(=O)Nc3ccc4ncsc4c32)cc1 [Example 76, 8-(4-Methylsulfonylmethyl-phenylamino-methylene)-6,8-dihydro-1-thia-3,6-diaza-as-indacen-7-one] |  |  | 1100 to 5000 nM | 1100 to 5000 nM | > 5000 nM | > 5000 nM | > 100 nM |  | 
O=C1Nc2ccc3ncsc3c2C1=CNc1ccc(S(=O)(=O)Nc2ccccn2)cc1 [Example 72, 4-[(7-Oxo-6,7-dihydro-1-thia-3,6-diaza-as-indacen-8-ylidenemethyl)-amino]-N-pyridin-2-yl-benzenesulfonamide] | 1100 to 5000 nM | 1100 to 5000 nM |  |  |  |  | > 100 nM | > 5000 nM | > 5000 nM
